Experimental data as given in US20080255181A1, “Methods for treating podocyte-related disorders” (University of Heidelberg, priority 2006, published 2008).
“Also recorded” adds a separate entry of the source.

What was measured:
[1] = tested on: ERK1/2; experiment: Western blotting of ERK1/2 phosphorylation in podocytes; assay type: cell-based, mouse
Source text: (§1) A well established cell model of conditionally immortalized murine podocytes was used to determine the impact of calcimimetics on podocyte function. These immortalized podocyte cell lines were generated from the Inmortomouse® (Charles River, Wilmington, Mass., USA) carrying a temperature-sensitive T-antigen as transgene, under the control of an interferon-γ inducible promoter. They were maintained cultured as previously described (Weins A et al. (2001) J Cell Biol 155: 393-404; Asanuma K. et al. (2005). J Clin Invest 115: 1188-1198. In brief, the cell line was maintained in RPMI 1640 (PAA Laboratories, Pasching, Austria) supplemented with 10% fetal bovine serum (PAA Laboratories, Pasching, Austria), 100 U/ml penicillin/streptomycin (Biochrom AG, Berlin, Germany) in humidified incubators with air-5% CO2. In order to induce differentiation, podocytes were grown on collagen type I (BD Bioscience, Bedford, Mass., USA) under permissive conditions at 33° C. with IFN-γ (10 U/ml) (Roche, Mannheim, Germany) or under non-permissive conditions at 37° C. without IFN-γ for at least 10 days.
(§2) Protein extraction from cultured podocytes and SDS-PAGE were done as previously described (Weins et al., supra). Total and phosphorylated proteins were detected by Western blotting as described previously, using the following primary antibodies: Bad (dilution 1:1000), pBad (1:1000), Bax (1:1000), Bid (1:1000), Bcl-xl (1:500), CREB (1:4000), ERK1/2 (1:4000), pERK 1/2 (1:4000), pJNK (1:1000), p38MAPK (1:500), p90RSK (1:2000) (Cell Signaling Technology, Beverly, Mass., USA), Bcl-2 (1:500), Caveolin-1 (1:500), 3-Actin (1:10000) (Abcam, Cambridge, UK) CaSR 1:100 (Alpha Diagnostics, San Antonio, Tex., USA). Western blot analysis was carried out according to standard protocols and visualized using enhanced chemiluminescence (ECL) immunoblot detection kits (Amersham Biosciences, Little Chalfont Buckinghamshire, UK).
It has been established previously that the activation of the CaSR induces a variety of intracellular signalling pathways such as the protein kinase C(PKC) and the MAP kinase pathways.
In addition, U0126 suppressed the phosphorylation of CREB (FIG. 10). Blockade of MEK1/2 and MAP kinases can not be bypassed via activation of other pathways such as PKC.

[2] = tested on: CREB; experiment: Western blotting of CREB phosphorylation in podocytes; assay type: cell-based, mouse
Source text: as §1
as §2, with “Western blot analysis was carried out according to standard protocols and visualized using enhanced chemiluminescence (ECL) immunoblot detection kits (Amersham Biosciences, Little Chalfont Buckinghamshire, UK).” left out
(§3) This CREB activation is able to mediate signals from numerous physiological stimuli, resulting in the regulation of a broad array of cellular responses, such as regulating of apoptosis associated genes. Therefore downstream pro-survival factors were analyzed. […]

[3] = tested on: p38 MAPK; experiment: Western blotting of p38 MAPK phosphorylation in podocytes; assay type: cell-based, mouse; details: 10 nmol/l, after 5 min and again after 30 and 60 min, HCl
Source text: (§4) A well established cell model of conditionally immortalized murine podocytes was used to determine the impact of calcimimetics on podocyte function. These immortalized podocyte cell lines were generated from the Inmortomouse® (Charles River, Wilmington, Mass., USA) carrying a temperature-sensitive T-antigen as transgene, under the control of an interferon-γ inducible promoter. […]
as §2, with “Western blot analysis was carried out according to standard protocols and visualized using enhanced chemiluminescence (ECL) immunoblot detection kits (Amersham Biosciences, Little Chalfont Buckinghamshire, UK).” left out

[4] = tested on: JNK; experiment: Western blotting of JNK activation in podocytes; assay type: cell-based, mouse; details: any time-point, HCl
Source text: as §4
as §2, with “Western blot analysis was carried out according to standard protocols and visualized using enhanced chemiluminescence (ECL) immunoblot detection kits (Amersham Biosciences, Little Chalfont Buckinghamshire, UK).” left out

[5] = tested on: p90RSK; experiment: Western blotting of p90RSK phosphorylation in podocytes; assay type: cell-based, mouse; details: 10 nmol/l, HCl
Source text: as §4
as §2, with “Western blot analysis was carried out according to standard protocols and visualized using enhanced chemiluminescence (ECL) immunoblot detection kits (Amersham Biosciences, Little Chalfont Buckinghamshire, UK).” left out
as §3

[6] = tested on: BAD; experiment: Western blotting of BAD phosphorylation in podocytes; assay type: cell-based, mouse; details: 10 nmol/l
Source text: as §4
as §2, with “Western blot analysis was carried out according to standard protocols and visualized using enhanced chemiluminescence (ECL) immunoblot detection kits (Amersham Biosciences, Little Chalfont Buckinghamshire, UK).” left out

[7] = tested on: Bcl-xL; experiment: Western blotting of Bcl-xL expression in podocytes; assay type: cell-based, mouse; details: time-dependent, HCl
Source text: as §4
as §2, with “Western blot analysis was carried out according to standard protocols and visualized using enhanced chemiluminescence (ECL) immunoblot detection kits (Amersham Biosciences, Little Chalfont Buckinghamshire, UK).” left out

[8] = tested on: BID; experiment: Western blotting of BID in podocytes; assay type: cell-based, mouse; details: Compound A exposure, HCl
Source text: as §4
as §2, with “Western blot analysis was carried out according to standard protocols and visualized using enhanced chemiluminescence (ECL) immunoblot detection kits (Amersham Biosciences, Little Chalfont Buckinghamshire, UK).” left out

[9] = tested on: podocytes genes; experiment: Microarray analysis of Compound A-dependent regulation of podocyte genes; assay type: cell-based, mouse; details: 10 nmol/l, 12 hrs
[10] = tested on: podocytes; experiment: FACS analysis of PAN-induced apoptosis of podocytes; assay type: cell-based, mouse; details: PAN 30 μg/ml; for reduction of PAN induced increase in apoptosis rate: Compound A 10 mmol/l as printed, p<0.05; for apoptosis rate of cultured podocytes: baseline less than 20% in controls
Source text: as §1
All cells were treated as described, then washed and trypsinized. All washes and eluted cells were collected, pooled, and centrifuged. After washing cells with Annexin-binding buffer, cells were incubated with FITC-labelled Annexin-V (Molecular Probes) and propidium iodide (Molecular Probes) for 30 min. Annexin-V binds phosphatidylserine, which is translocated to the outer cell membrane during the initial stages of apoptosis. Propidium iodide was also applied to cells in order to distinguish necrosis from apoptosis. Cells were analyzed by flow cytometry (FACScalibur, Becton Dickinson). Apoptosis-associated fluorescence was measured using a log scale. Cells with high propidium iodide content were necrotic and were excluded from the analysis.
This example summarizes the results of FACS analyses. […] PAN (30 μg/ml) increased apoptosis rate of cultured podocytes to 44 and 78% correspondingly after 48 and 60 hrs of incubation, as compared to a baseline apoptosis rate of less than 20% in respective controls (FIG. 11). Addition of Compound A (10 mmol/l) reduced PAN induced increase in apoptosis rate in three independent experiments by 55 and 60% after 48 and 60 hrs respectively (both p<0.05).

[11] = tested on: PAN-treated rats; experiment: Animal model of PAN nephrosis (proteinuria); assay type: in vivo, rat
Method: Puromycin aminonucleoside (PAN), which induces oxidant injury in cells via the xanthine oxidase pathway, has been used extensively as a model of podocyte injury. Podocyte injury in this model can be ameliorated by inhibitors of oxidants. Following PAN injection (15 mg/100 g body weight), injury in the rat podocytes is manifest by loss of interdigitating foot processes, detachment from the GBM, pseudocyst formation, reduction in anionic charge, attenuation of the underlying GBM, and associated leakiness of the glomerular filter resulting in proteinuria. The PAN model also progresses to a patchy glomerular scarring process [focal glomerulosclerosis (FSGS)]. FSGS in humans is commonly associated with progression to end-stage renal disease (ESRD) requiring renal replacement therapy. […] Podocytes were stained against WT-1, a specific marker for podocytes and counted under an immunofluorescence microscope.
Male Sprague-Dawley rats weighing approximately 100 g were administered intraperitoneal PAN (Sigma Company, St. Louis, Mo., USA) at a dose of 15 mg/100 g body weight, or additionally at the same time a single injection of Compound A (doses 2 mg/100 g body weight) 4 hours before, or an equivalent volume of 0.9% saline (0.2-0.4 ml/animal) (N=10-15 animals per group). […] Protein/Creatinin ratio was measured with ADVIA 2400, Bayer Diagnostics. […]

[12] = tested on: intracellular proteins; experiment: Activation of intracellular proteins in podocytes by calcimimetic; assay type: cell-based, mouse; details: 4 nmol/l
Source text: as §4
as §2, with “Western blot analysis was carried out according to standard protocols and visualized using enhanced chemiluminescence (ECL) immunoblot detection kits (Amersham Biosciences, Little Chalfont Buckinghamshire, UK).” left out

[13] = inhibitor 10 mM as printed, Compound A 10 nmol

N#CC(=C(/N)Sc1ccccc1N)/C(C#N)=C(\N)Sc1ccccc1N [Compound U0126, reference compound]
Compound A-induced phosphorylation of ERK1/2 in presence of MEK1/2 inhibitor ([1]; inhibitor 10 μM): abolish completely | calcimimetic-induced phosphorylation of ERK 1/2 in presence of inhibitor (FIG. 10 legend) [1, 13]: strongly inhibits | phosphorylation of CREB in presence of MEK1/2 inhibitor ([2]; inhibitor 10 μM): suppressed | calcimimetic-induced phosphorylation of CREB in presence of inhibitor (FIG. 10 legend) [2, 13]: strongly inhibits

COc1cccc([C@@H](C)NCCCc2ccccc2Cl)c1.Cl [Compound A, N-(3-[2-chlorophenyl]-propyl)-R-▪-methyl-3-methoxybenzylamine HCl]
phosphorylation of ERK1/2 ([1]; 4 to 50 nmol/l, dose- and time-dependent, HCl): phosphorylation of ERK1/2 occurs; also recorded: time and dose dependent phosphorylation | activation of ERK1/2 ([1]; 10 mol/l as printed, not further increased by higher concentrations): strong activation | time of first detectable ERK1/2 phosphorylation steps ([1]; Compound A incubation): 2 min | time of maximal ERK1/2 phosphorylation ([1]; Compound A incubation): 10 min | p38 MAPK phosphorylation [3]: clear biphasic response pattern; also recorded: biphasic phosphorylation | JNK activation [4]: no activation; also recorded: not activated | p90RSK phosphorylation [5]: phosphorylated in a similar time pattern as ERK1/2; also recorded: induction | CREB phosphorylation ([2]; 10 nmol/l, HCl): leads to CREB phosphorylation; also recorded: induction | amount of non-phosphorylated BAD [6]: decreases | amount of phosphorylated BAD ([6]; time-dependent): clearly increases | Bcl-xl expression [7]: induced in a time-dependent way; also recorded: increased expression | BID [8]: not affected; also recorded: not influenced | CaSR-regulated genes/number of genes analyzed: Adherens junction [9]: 11/62 | CaSR-regulated genes/number of genes analyzed: Adhesion-extracellular matrix [9]: 14/84 | CaSR-regulated genes/number of genes analyzed: Apoptosis [9]: 9/72 | CaSR-regulated genes/number of genes analyzed: Cytokine receptor interactions [9]: 29/187 | CaSR-regulated genes/number of genes analyzed: Focal Adhesions [9]: 30/174 | CaSR-regulated genes/number of genes analyzed: MAPK signaling pathways [9]: 30/193 | CaSR-regulated genes/number of genes analyzed: Nfkb signaling [9]: 8/79 | CaSR-regulated genes/number of genes analyzed: Regulation of actin cytoskeleton [9]: 26/171 | CaSR-regulated genes/number of genes analyzed: TGF beta signaling pathway [9]: 9/62 | CaSR-regulated genes/number of genes analyzed: Toll-like-receptor signaling [9]: 10/69 | CaSR-regulated genes/number of genes analyzed: Wnt signaling pathways [9]: 15/116 | mRNA expression of pro-apoptotic genes calpain 1, calpain small subunit 1, caspase 7 and caspase 8 [9]: down-regulated | mRNA expression of pro-survival factor Bcl-2 [9]: up-regulated | genes significantly regulated out of 15000 genes investigated ([9]; vs untreated cells): 10% | PAN induced apoptosis of podocytes (FIG. 11 legend) ([10]; Compound A 10 nmol/l, 48 h and 60 h): prevents | reduction of PAN induced increase in apoptosis rate ([10]; 48 hrs): 55% | reduction of PAN induced increase in apoptosis rate ([10]; 60 hrs): 60% | proteinuria in group receiving PAN and Compound A ([11]; male Sprague-Dawley rats, PAN 15 mg/100 g i.p., Compound A 2 mg/100 g body weight single injection, HCl): significant protection; also recorded: successfully impeded; also recorded: prevent the development of proteinuria | proteinuria after a single dose, compared to untreated control rats receiving saline ([11]; rats, after day 6, intraperitoneal): significantly induced | activation of intracellular proteins [12]: activation of intracellular proteins was demonstrated

CN(C)c1ncnc2c1ncn2[C@@H]1O[C@H](CO)[C@@H](N)[C@H]1O [PAN, puromycin aminonucleoside, reference compound]
apoptosis rate of cultured podocytes ([10]; 48 hrs of incubation): 44% | apoptosis rate of cultured podocytes ([10]; 60 hrs of incubation): 78%
